# Measured values from ChEMBL document CHEMBL1130456, “Nonpeptide glycoprotein IIb/IIIa inhibitors. 13. design and synthesis of an orally active pyrazolopiperazinone nonpeptide fibrinogen receptor antagonist” (Bioorg Med Chem Lett, 1997).
# “And” between values parts separate entries of the source, which are not always exact repeats. Equal entries are not always repeated.
# Species on record: Homo sapiens
# Test: Concentration required for 50% inhibition of platelet aggregation of human gel-filtered platelets(GFP) in platelet aggregation assay
# Assay type: functional
row,Compound,IC50 [nM]
1,C=CCCS(=O)(=O)N[C@@H](CNC(=O)c1cc2n(n1)CCN(CCC1CCNCC1)C2=O)C(=O)O,11
2,O=C(N[C@@H](CNC(=O)c1cc2n(n1)CCN(CCC1CCNCC1)C2=O)C(=O)O)OCc1ccccc1,5
3,CS(=O)(=O)N[C@@H](CNC(=O)c1cc2n(n1)CCN(CCC1CCNCC1)C2=O)C(=O)O,15
4,C[C@H](CC(=O)O)NC(=O)c1cc2n(n1)CCN(CCC1CCNCC1)C2=O,260

# More lines, now with the values ahead:
row,IC50 [nM],Compound
1,25,CC(=O)N[C@@H](CNC(=O)c1cc2n(n1)CCN(CCC1CCNCC1)C2=O)C(=O)O
2,120,C#C[C@H](CC(=O)O)NC(=O)c1cc2n(n1)CCN(CCC1CCNCC1)C2=O
3,45,N[C@@H](CNC(=O)c1cc2n(n1)CCN(CCC1CCNCC1)C2=O)C(=O)O
4,22,O=C(NCc1ccccc1)N[C@@H](CNC(=O)c1cc2n(n1)CCN(CCC1CCNCC1)C2=O)C(=O)O

# Tested on: Rhesus monkey
# Test: Inhibition of platelet aggregation at 24 hr in response to collagen in conscious rhesus monkey
# Assay type: functional, Cercopithecidae
row,Compound,Inhibition
1,CCCCS(=O)(=O)N[C@@H](CNC(=O)c1cc2n(n1)CCN(CCC1CCNCC1)C2=O)C(=O)O,86% and 31%

# Tested on: Rhesus monkey
# Test: Inhibition of platelet aggregation at 6 hr in response to ADP and collagen in conscious rhesus monkey
# Assay type: functional, Cercopithecidae
row,Compound,Inhibition [%]
1,CCCCS(=O)(=O)N[C@@H](CNC(=O)c1cc2n(n1)CCN(CCC1CCNCC1)C2=O)C(=O)O,>90
